The values that follow come from patent US9663460B2, “Sulfur derivatives as chemokine receptor modulators” (ALLERGAN, INC., priority 2010, dated 2017).

Molecules are shown by their SMILES.

Sequence of CCR2 (P41597 whole entry, species assumed): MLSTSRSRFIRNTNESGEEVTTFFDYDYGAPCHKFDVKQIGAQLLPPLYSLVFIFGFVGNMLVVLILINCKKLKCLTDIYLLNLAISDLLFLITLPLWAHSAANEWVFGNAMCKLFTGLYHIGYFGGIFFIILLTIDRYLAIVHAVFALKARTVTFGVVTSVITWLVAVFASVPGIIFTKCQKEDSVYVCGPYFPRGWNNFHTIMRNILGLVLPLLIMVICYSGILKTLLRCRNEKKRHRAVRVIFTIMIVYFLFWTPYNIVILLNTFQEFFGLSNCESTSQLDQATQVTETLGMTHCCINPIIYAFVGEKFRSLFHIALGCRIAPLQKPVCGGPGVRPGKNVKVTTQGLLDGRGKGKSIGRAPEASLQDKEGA

The assay addresses CCR2 (Homo sapiens (Human), UniProt P41597). As to the kind of experiment: Calcium activity assayed on the FLIPR Tetra in HEK-Gqi5 cells stably expressing CCR2. It counts as cell-based. The following applies: FLIPR Tetra calcium assay.
Turning to `O=S(=O)(Nc1cc(Cl)ccc1[S+]([O-])Cc1ncccn1)c1cc2ccccc2o1` (centres unmarked) [N-{5-chloro-2-[(pyrimidin-2-ylmethyl)sulfinyl]phenyl}-1-benzofuran-2-sulfonamide], the “CCR2 % ANTAGONISM” value came out at 104% and the IC50 amounted to 506 nM.

For the compound `Nc1cccc(C[S+]([O-])c2ccc(Cl)cc2NS(=O)(=O)c2cc3ccccc3o2)n1` (centres unmarked) [N-(2-{[(6-aminopyridin-2-yl)methyl]sulfinyl}-5-chlorophenyl)-1-benzofuran-2-sulfonamide], the “CCR2 % ANTAGONISM” value stood at 99% and the IC50 was found to be 28 nM.

Regarding `Cc1ccc(S(=O)(=O)Nc2cc(Cl)ccc2[S+](C)[O-])o1` (centres unmarked) [N-[5-chloro-2-(methylsulfinyl)phenyl]-5-methylfuran-2-sulfonamide], the “CCR2 % ANTAGONISM” value is 76% and the IC50 came to 194 nM.

In the case of `O=S(=O)(Nc1cc(Cl)ccc1[S+]([O-])Cc1ncc[nH]1)c1cc2ccccc2o1` (centres unmarked) [N-{5-chloro-2-[(1H-imidazol-2-ylmethyl)sulfinyl]phenyl}-1-benzofuran-2-sulfonamide], the “CCR2 % ANTAGONISM” value turned out to be 108% and the IC50 came out at 1900 nM.

`Nc1cccc(CS(=O)(=O)c2ccccc2NS(=O)(=O)c2cc3ccccc3o2)c1` [N-{2-[(3-aminobenzyl)sulfonyl]phenyl}-1-benzofuran-2-sulfonamide]: the “CCR2 % ANTAGONISM” value is reported as 94% and the IC50 was 41 nM.

Take `CN(C)C(=O)CCSc1ccc(Cl)cc1NS(=O)(=O)c1cc2ccccc2o1` [3-({2-[(1-benzofuran-2-ylsulfonyl)amino]-4-chlorophenyl}thio)-N,N-dimethylpropanamide]: the “CCR2 % ANTAGONISM” value came to 100% and the IC50 worked out at 146 nM.

In the case of `CC(=O)Nc1nc(CSc2ccc(Cl)cc2NS(=O)(=O)c2cc3ccccc3o2)cs1` [N-{4-[({2-[(1-benzofuran-2-ylsulfonyl)amino]-4-chlorophenyl}thio)methyl]-1,3-thiazol-2-yl}acetamide], the “CCR2 % ANTAGONISM” value is recorded as 102% and the IC50 came out at 848 nM.

As to `CS(=O)(=O)c1ccc(Cl)cc1NS(=O)(=O)c1ccc(I)cc1` [N-[5-chloro-2-(methylsulfonyl)phenyl]-4-iodobenzenesulfonamide], the “CCR2 % ANTAGONISM” value came to 92% and the IC50 is 1070 nM.

As to `O=S(=O)(Nc1cc(Cl)ccc1SCc1ccccn1)c1cc2ccccc2o1` [N-{5-chloro-2-[(pyridin-2-ylmethyl)thio]phenyl}-1-benzofuran-2-sulfonamide], the “CCR2 % ANTAGONISM” value is given as 91% and the IC50 was 35 nM.

On to `Nc1cc(C[S+]([O-])c2ccc(Cl)cc2NS(=O)(=O)c2cc3ccccc3o2)n[nH]1` (centres unmarked) [N-(2-{[(5-amino-1H-pyrazol-3-yl)methyl]sulfinyl}-5-chlorophenyl)-1-benzofuran-2-sulfonamide], for which the “CCR2 % ANTAGONISM” value came out at 99% and the IC50 is 1380 nM.

As to `Nc1nc(CS(=O)(=O)c2ccc(Cl)cc2NS(=O)(=O)c2cc3ccccc3o2)cs1` [N-(2-{[(2-amino-1,3-thiazol-4-yl)methyl]sulfonyl}-5-chlorophenyl)-1-benzofuran-2-sulfonamide], the “CCR2 % ANTAGONISM” value is reported as 102% and the IC50 was determined as 83 nM.

As to `C[S+]([O-])c1ccc(Cl)cc1NS(=O)(=O)c1ccc(Br)cc1` (centres unmarked) [4-bromo-N-[5-chloro-2-(methylsulfinyl)phenyl]benzenesulfonamide], the “CCR2 % ANTAGONISM” value was determined as 94% and the IC50 was found to be 116 nM.

For the compound `COc1ccc(SCc2cccc(N)c2)c(NS(=O)(=O)c2cc3ccccc3o2)c1` [N-{2-[(3-aminobenzyl)thio]-5-methoxyphenyl}-1-benzofuran-2-sulfonamide], the “CCR2 % ANTAGONISM” value is reported as 100% and the IC50 is 1400 nM.

Take `O=S(=O)(Nc1cc(Cl)ccc1S(=O)(=O)C1CCC(O)C1)c1ccc(Cl)c(C(F)(F)F)c1` (centres unmarked) [4-chloro-N-{5-chloro-2-[(3-hydroxycyclopentyl)sulfonyl]phenyl}-3-(trifluoromethyl)benzenesulfonamide]: the “CCR2 % ANTAGONISM” value is listed as 97% and the IC50 worked out at 76 nM.

For `O=S(=O)(Cc1ccc[n+]([O-])c1)c1ccc(Cl)cc1NS(=O)(=O)c1cc2ccccc2o1` [N-(5-chloro-2-{[(1-oxidopyridin-3-yl)methyl]sulfonyl}phenyl)-1-benzofuran-2-sulfonamide], the “CCR2 % ANTAGONISM” value is 81% and the IC50 was found to be 1750 nM.

With `CCS(=O)(=O)c1ccc(Cl)cc1NS(=O)(=O)c1ccc(Cl)c(C(F)(F)F)c1` [4-chloro-N-[5-chloro-2-(ethylsulfonyl)phenyl]-3-(trifluoromethyl)benzenesulfonamide], the “CCR2 % ANTAGONISM” value was determined as 90% and the IC50 was 88 nM.

Regarding `CC(C)(C)OC(=O)Nc1nc(C[S+]([O-])c2ccc(Cl)cc2NS(=O)(=O)c2cc3ccccc3o2)cs1` (centres unmarked) [tert-butyl {4-[({2-[(1-benzofuran-2-ylsulfonyl)amino]-4-chlorophenyl}sulfinyl)methyl]-1,3-thiazol-2-yl}carbamate], the “CCR2 % ANTAGONISM” value stood at 101% and the IC50 is 2400 nM.

With `CCOC(=O)C[S+]([O-])c1ccc(Cl)cc1NS(=O)(=O)c1ccc(Cl)c(C(F)(F)F)c1` (centres unmarked) [ethyl {[4-chloro-2-({[4-chloro-3-(trifluoromethyl)phenyl]sulfonyl}amino)phenyl]sulfinyl}acetate], the “CCR2 % ANTAGONISM” value is given as 79% and the IC50 amounted to 141 nM.

For `CS(=O)(=O)c1ccc(Cl)cc1NS(=O)(=O)c1cccc(Cl)c1F` [3-chloro-N-[5-chloro-2-(methylsulfonyl)phenyl]-2-fluorobenzenesulfonamide], the “CCR2 % ANTAGONISM” value is listed as 101% and the IC50 came to 116 nM.

On to `O=S(=O)(Nc1cc(Cl)ccc1S(=O)(=O)C(F)(F)F)c1cc2ccccc2o1` [N-{5-chloro-2-[(trifluoromethyl)sulfonyl]phenyl}-1-benzofuran-2-sulfonamide], for which the “CCR2 % ANTAGONISM” value came out at 91% and the IC50 was 73 nM.

`Nc1cccc(C[S+]([O-])c2ccc(Cl)cc2NS(=O)(=O)c2ccc(F)cc2F)c1` (centres unmarked) [N-{2-[(3-aminobenzyl)sulfinyl]-5-chlorophenyl}-2,4-difluorobenzenesulfonamide]: the “CCR2 % ANTAGONISM” value amounted to 99% and the IC50 was 443 nM.

`Nc1ccc(CS(=O)(=O)c2ccc(Cl)cc2NS(=O)(=O)c2cc3ccccc3o2)cc1` [N-{2-[(4-aminobenzyl)sulfonyl]-5-chlorophenyl}-1-benzofuran-2-sulfonamide]: the “CCR2 % ANTAGONISM” value worked out at 104% and the IC50 was 90 nM.

Regarding `CC(C)(C)OC(=O)Nc1cc(CS(=O)(=O)c2ccc(Cl)cc2NS(=O)(=O)c2cc3ccccc3o2)ccn1` [tert-butyl {4-[({2-[(1-benzofuran-2-ylsulfonyl)amino]-4-chlorophenyl}sulfonyl)methyl]pyridin-2-yl}carbamate], the “CCR2 % ANTAGONISM” value worked out at 76% and the IC50 was found to be 2260 nM.

As for `CC(C)NC(=O)CC[S+]([O-])c1ccc(Cl)cc1NS(=O)(=O)c1ccc(Cl)c(C(F)(F)F)c1` (centres unmarked) [3-{[4-chloro-2-({[4-chloro-3-(trifluoromethyl)phenyl]sulfonyl}amino)phenyl]sulfinyl}-N-isopropylpropanamide], the “CCR2 % ANTAGONISM” value is 93% and the IC50 was 1790 nM.

Consider `Nc1cc(CSc2ccc(Cl)cc2NS(=O)(=O)c2cc3ccccc3o2)n[nH]1` [N-(2-{[(5-amino-1H-pyrazol-3-yl)methyl]thio}-5-chlorophenyl)-1-benzofuran-2-sulfonamide], for which the “CCR2 % ANTAGONISM” value is listed as 105% and the IC50 came out at 25 nM.

Take `Nc1cccc(CSc2ccc(Cl)cc2NS(=O)(=O)c2ccccc2)c1` [N-{2-[(3-aminobenzyl)thio]-5-chlorophenyl}benzenesulfonamide]: the “CCR2 % ANTAGONISM” value is 40% and the IC50 stood at 3100 nM.

As for `CN(C)C(=O)CCC[S+]([O-])c1ccc(Cl)cc1NS(=O)(=O)c1cc2ccccc2o1` (centres unmarked) [4-({2-[(1-benzofuran-2-ylsulfonyl)amino]-4-chlorophenyl}sulfinyl)-N,N-dimethylbutanamide], the “CCR2 % ANTAGONISM” value was determined as 54%.

As for `CN(C)C(=O)CC[S+]([O-])c1ccc(Cl)cc1NS(=O)(=O)c1ccc(Cl)c(C(F)(F)F)c1` (centres unmarked) [3-{[4-chloro-2-({[4-chloro-3-(trifluoromethyl)phenyl]sulfonyl}amino)phenyl]sulfinyl}-N,N-dimethylpropanamide], the “CCR2 % ANTAGONISM” value is 89% and the IC50 is 96 nM.

In the case of `CN(C)C(=O)CC[S+]([O-])c1ccc(Cl)cc1NS(=O)(=O)c1ccc(Cl)cc1F` (centres unmarked) [3-[(4-chloro-2-{[(4-chloro-2-fluorophenyl)sulfonyl]amino}phenyl)sulfinyl]-N,N-dimethylpropanamide], the “CCR2 % ANTAGONISM” value was found to be 99% and the IC50 came to 221 nM.

For the compound `NCCCSc1ccc(Cl)cc1NS(=O)(=O)c1cc2ccccc2o1` [N-{2-[(3-aminopropyl)thio]-5-chlorophenyl}-1-benzofuran-2-sulfonamide], the “CCR2 % ANTAGONISM” value was 102%.

In the case of `O=S(=O)(Nc1cc(Cl)ccc1[S+]([O-])Cc1cccnc1F)c1cc2ccccc2o1` (centres unmarked) [N-(5-chloro-2-{[(2-fluoropyridin-3-yl)methyl]sulfinyl}phenyl)-1-benzofuran-2-sulfonamide], the “CCR2 % ANTAGONISM” value is on record as 95% and the IC50 amounted to 79 nM.

Regarding `COc1ccc([S+]([O-])Cc2cccc(N)c2)c(NS(=O)(=O)c2cc3ccccc3o2)c1` (centres unmarked) [N-{2-[(3-aminobenzyl)sulfinyl]-5-methoxyphenyl}-1-benzofuran-2-sulfonamide], the “CCR2 % ANTAGONISM” value came to 100% and the IC50 amounted to 85 nM.

With `O=S(=O)(Nc1cc(Cl)ccc1SCc1c[nH]cn1)c1ccc(Cl)c(C(F)(F)F)c1` [4-chloro-N-{5-chloro-2-[(1H-imidazol-4-ylmethyl)thio]phenyl}-3-(trifluoromethyl)benzenesulfonamide], the “CCR2 % ANTAGONISM” value was 83% and the IC50 was found to be 68 nM.

For `Nc1cccc(CS(=O)(=O)c2ccc(Cl)cc2NS(=O)(=O)c2cc3ccccc3o2)n1` [N-(2-{[(6-aminopyridin-2-yl)methyl]sulfonyl}-5-chlorophenyl)-1-benzofuran-2-sulfonamide], the “CCR2 % ANTAGONISM” value came out at 102% and the IC50 came out at 15 nM.

As to `O=S(=O)(Nc1cc(Cl)ccc1SC(F)(F)F)c1cc2ccccc2o1` [N-{5-chloro-2-[(trifluoromethyl)thio]phenyl}-1-benzofuran-2-sulfonamide], the “CCR2 % ANTAGONISM” value was 92% and the IC50 amounted to 333 nM.

In general, IC50 refers to the concentration at which inhibition is half-maximal.
